This note sets out measurements from PMC5365648, “Pharmacokinetics of the Novel Echinocandin CD101 in Multiple Animal Species” (Antimicrobial Agents and Chemotherapy, 2017).

A short description of this series: Mouse pharmacokinetics, i.v. bolus. The following applies: in vivo, iv, male ICR (CD-1) mice, single 1 mg/kg slow i.v. bolus, plasma, LC-MS/MS, noncompartmental from mean profile, n = 3/time point. On the procedure:
A single 1-mg/kg dose of CD101 or anidulafungin was administered by slow i.v. bolus (∼2 min) to male ICR (CD-1) mice (n = 3/group/time point). Blood samples (via cardiac puncture) were collected for plasma processing predose and at 0.083 (5 min), 0.5, 1, 4, 8, 24, 48, and 72 h postdose. PK profiles were generated based on mean results from the three animals sampled at each time point. In another study, a single 1-, 4-, or 16-mg/kg dose of CD101 was administered by i.p. injection to female ICR (CD-1) mice (n = 3/time point/dose), and blood samples (via cardiac puncture) were drawn for plasma processing at 1, 3, 6, 12, 24, 48, 72, and 96 h postdose.
For each of the pharmacokinetic studies, whole-blood samples (K3EDTA as anticoagulant) were collected and centrifuged within 30 min of collection. The resulting plasma was harvested and stored at −20°C until analysis. Tissue samples were homogenized by a bead-based homogenizer following the addition of deionized water to excised tissue in a 2:1 (vol/wt) ratio and stored at −20°C until analysis. Prior to analysis, plasma or homogenized tissue samples were quenched with acetonitrile (3:1, acetonitrile-plasma or tissue ratio) containing an appropriate internal standard (isotopically labeled d9-CD101 [mouse and rat] or a structural analog [dog, monkey, and chimpanzee]). Plasma and tissue homogenate concentrations (quantified against calibration standards processed the same way) were determined by reverse-phase, gradient liquid chromatography with tandem mass spectrometric detection (LC-MS/MS) using an AB-SCIEX API 3200Q/4000 mass spectrometry system. Calibration standard ranges were the following: 0.400 (lower limit of quantitation, [LLOQ]) to 200 μg/ml (CD101, mouse), 0.040 (LLOQ) to 10 μg/ml (anidulafungin, mouse), 0.002 (LLOQ) to 10 μg/ml (CD101, rat), 0.005 (LLOQ) to 10 μg/ml (anidulafungin, rat), 0.050 (LLOQ) to 10 μg/ml (CD101, dog), 0.020 (LLOQ) to 10 μg/ml (anidulafungin, dog), 0.010 (LLOQ) to 10 μg/ml (CD101, monkey), 0.001 (LLOQ) to 10 μg/ml (anidulafungin, monkey), 0.015 (LLOQ) to 10 μg/ml (CD101, chimpanzee), and 0.015 (LLOQ) to 10 μg/ml (anidulafungin, chimpanzee). When necessary, dilutions with blank matrix were made for samples that quantified above the upper limit of quantitation. The methods used in the analysis were qualified as fit for purpose: calibration standards were matrix matched with the exception that human plasma calibration standards were used to analyze chimpanzee plasma samples due to the rarity of blank chimpanzee plasma, and, for each analytical batch, triplicate calibration standards were included at the beginning, approximately in the middle, and at the end of the batch. Following analysis, quantitation was carried out by a calibration curve comprising the analyte/internal standard area ratio versus concentration. Analytical batch acceptance followed the general guidance that triplicate standards/quality controls be within ±20% for accuracy (percentage of nominal concentration) and ≤20% for precision (percent coefficient of variation).
Pharmacokinetic parameters were calculated by noncompartmental analysis using Phoenix WinNonlin (version 6.3; Pharsight, Mountain View, CA) from either individual or mean (mouse) concentration-time profiles. An unpaired t test was used to compare mean exposures from male and female rats.

Starred links: 1 amine or outer side, 2 acyl side, 3 side chain; linkers in the order of their positions; H or OH if unused. Positions of bridges follow the written chain, without caps; N, C: chain ends. Non-standard residues stand in square brackets, D forms with d. Residues, ends and D or L forms follow the SMILES beside them. *: point of attachment. Orn(4R-OH,5R-OCH2CH2NMe3+) = C[N+](C)(C)CCO[C@@H](N[*:3])[C@H](O)C[C@H](N[*:1])C(=O)[*:2]; pTerphenylCO(4''-OnC5H11) = CCCCCOc1ccc(-c2ccc(-c3ccc(C(=O)*)cc3)cc2)cc1; hTyr(3S-OH,4S-OH) = N[C@H](C(=O)O)[C@H](O)[C@@H](O)c1ccc(O)cc1; Pro(3S-OH,4S-Me) = C[C@H]1CN[C@H](C(=O)O)[C@H]1O; Hyp = O=C(O)[C@@H]1C[C@@H](O)CN1

Usually AUC(0-inf) stands for the area under the concentration-time curve extrapolated to infinity. Low values mean less exposure, high ones more exposure. As usually defined, the AUC(0-t) is the area under the concentration-time curve up to a stated or last time point. The term Cmax denotes the maximum level reached in the sampled fluid or tissue. The Tmax is the time from dosing to the highest level. As a reminder, the half-life is how long it takes for the measured level to halve. Higher therefore signals slow loss. Usually clearance stands for the rate of elimination divided by the concentration. In the case of `CCCCCOc1ccc(-c2ccc(-c3ccc(C(=O)N[C@H]4C[C@@H](O)[C@@H](OCC[N+](C)(C)C)NC(=O)[C@@H]5[C@@H](O)[C@@H](C)CN5C(=O)[C@H]([C@@H](C)O)NC(=O)[C@H]([C@H](O)[C@@H](O)c5ccc(O)cc5)NC(=O)[C@@H]5C[C@@H](O)CN5C(=O)[C@H]([C@@H](C)O)NC4=O)cc3)cc2)cc1` [CD101] ({pTerphenylCO(4''-OnC5H11)}-[Orn(4R-OH,5R-OCH2CH2NMe3+)]T[Hyp][hTyr(3S-OH,4S-OH)]T[Pro(3S-OH,4S-Me)]; lactam 1-C), the AUC(0-inf) is 166 µg·h/mL, the AUC(0-t) was determined as 87.3 µg·h/mL, the highest level (Cmax) was 9290 ng/mL and the Tmax worked out at 4.98 min. Moreover, the half-life is 25.2 h. Also, where the note is “read-out: CL (clearance)”, the clearance turned out to be 0.102 mL/min/kg. The Vd (read-out: Vss (volume of distribution at steady state)) amounted to 0.206 L/kg.
